Laboratory results reported in patent publication US9878986B2, “Compounds for selective histone deacetylase inhibitors, and pharmaceutical composition comprising the same” (CHONG KUN DANG PHARMACEUTICAL CORP., priority 2013, dated 2018).

What was measured:
HDAC 6 = target: T1, HDAC 6 (Homo sapiens, UniProt Q9UBN7); experiment: Test of HDAC activities, HDAC6 (fluorimetric); format: biochemical; design: purchased Calbiochem 382180; conditions: samples at 0.1, 1, 10, 100, 1000 nM; 37° C. 60 minutes; fluorescence Ex 390, Em 460; read-out: HDAC inhibitory activities, HDAC6
T1 sequence (Q9UBN7 1-1215): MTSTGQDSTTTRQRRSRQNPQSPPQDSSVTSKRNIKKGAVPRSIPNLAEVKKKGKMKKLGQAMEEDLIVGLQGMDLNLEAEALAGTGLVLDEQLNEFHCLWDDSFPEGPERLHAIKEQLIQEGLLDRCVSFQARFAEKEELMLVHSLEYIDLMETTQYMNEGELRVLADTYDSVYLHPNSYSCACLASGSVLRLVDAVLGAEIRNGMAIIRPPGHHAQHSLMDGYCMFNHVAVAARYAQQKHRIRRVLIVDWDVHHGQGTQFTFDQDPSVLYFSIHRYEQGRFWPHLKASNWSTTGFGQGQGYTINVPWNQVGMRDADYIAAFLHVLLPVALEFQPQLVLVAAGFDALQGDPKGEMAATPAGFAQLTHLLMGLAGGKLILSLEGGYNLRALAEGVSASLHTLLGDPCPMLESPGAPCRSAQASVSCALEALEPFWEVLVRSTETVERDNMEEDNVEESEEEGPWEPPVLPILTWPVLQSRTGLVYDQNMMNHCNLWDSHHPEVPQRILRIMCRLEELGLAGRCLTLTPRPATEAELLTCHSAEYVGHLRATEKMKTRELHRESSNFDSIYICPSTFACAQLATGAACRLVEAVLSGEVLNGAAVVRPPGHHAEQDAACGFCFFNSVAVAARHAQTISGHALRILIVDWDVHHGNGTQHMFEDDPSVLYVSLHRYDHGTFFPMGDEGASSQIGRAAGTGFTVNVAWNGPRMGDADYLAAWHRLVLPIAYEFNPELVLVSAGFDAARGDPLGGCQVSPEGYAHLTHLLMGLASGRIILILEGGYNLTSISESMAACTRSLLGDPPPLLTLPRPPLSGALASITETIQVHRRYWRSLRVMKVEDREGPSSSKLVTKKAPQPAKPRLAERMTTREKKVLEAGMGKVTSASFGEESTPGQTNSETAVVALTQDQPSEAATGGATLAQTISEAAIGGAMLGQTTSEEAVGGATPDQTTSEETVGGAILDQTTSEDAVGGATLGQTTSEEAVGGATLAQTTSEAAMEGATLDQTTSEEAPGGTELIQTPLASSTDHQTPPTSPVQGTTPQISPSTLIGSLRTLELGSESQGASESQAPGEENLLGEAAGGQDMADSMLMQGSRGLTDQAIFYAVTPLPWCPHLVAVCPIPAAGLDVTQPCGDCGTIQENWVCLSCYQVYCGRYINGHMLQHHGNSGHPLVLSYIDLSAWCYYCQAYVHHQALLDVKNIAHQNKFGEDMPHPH
Description: (§1) The HDAC inhibitory activities of test materials were measured using the HDAC1 Fluorimetric Drug Discovery Assay Kit (Enzolifesciences: BML-AK511) and HDAC6 human recombinant (Calbiochem: 382180). In the HDAC1 assay, the samples were treated with concentrations of 100, 1000, and 10000 nM, and in the HDAC6 assay, the samples were treated with concentrations of 0.1, 1, 10, 100, and 1000 nM. After the treatment of the samples, the samples were reacted at 37° C. for 60 minutes, treated with a developer, and then reacted at 37° C. for 30 minutes. Then, the fluorescence intensity (Ex 390, Em 460) was measured using the FlexStation 3 (Molecular device).

HDAC1 = HDAC1 (Homo sapiens, UniProt Q13547); experiment: Test of HDAC activities, HDAC1 Fluorimetric Drug Discovery Assay Kit; format: biochemical; design: purchased Enzolifesciences BML-AK511; conditions: samples at 100, 1000, 10000 nM; 37° C. 60 minutes; fluorescence Ex 390, Em 460; read-out: HDAC inhibitory activities, HDAC1
Description: as §1

HDAC1, sequence (Q13547 whole entry): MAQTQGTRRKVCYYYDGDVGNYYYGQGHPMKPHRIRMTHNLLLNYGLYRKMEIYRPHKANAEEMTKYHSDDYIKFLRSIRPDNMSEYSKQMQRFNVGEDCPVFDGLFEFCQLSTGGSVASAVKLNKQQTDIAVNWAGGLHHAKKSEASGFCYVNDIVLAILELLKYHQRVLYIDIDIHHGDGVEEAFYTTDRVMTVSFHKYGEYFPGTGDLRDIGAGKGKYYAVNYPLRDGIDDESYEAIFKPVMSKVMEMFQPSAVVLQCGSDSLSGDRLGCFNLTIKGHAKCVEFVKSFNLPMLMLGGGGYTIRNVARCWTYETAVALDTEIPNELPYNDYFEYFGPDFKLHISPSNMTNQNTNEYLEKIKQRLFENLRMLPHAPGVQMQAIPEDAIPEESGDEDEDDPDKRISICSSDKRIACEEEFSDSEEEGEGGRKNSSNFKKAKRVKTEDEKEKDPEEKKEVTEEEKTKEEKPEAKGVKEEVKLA

IC50 (HDAC 6) [nM] | IC50 (HDAC1) [nM] | SMILES
5.1 | 1820 | CC(C)(F)CN1CCN(C(=O)N(Cc2ccc(C(=O)NO)cc2)c2cccc(C(F)(F)F)c2)CC1 [Compound 531, 4-(2-fluoro-2-methylpropyl)-N-(4-(hydroxycarbamoyl)benzyl)-N-(3-(trifluoromethyl)phenyl)piperazine-1-carboxamide]
3 | 3280 | O=C(NO)c1ccc(CN(C(=O)N2CCN(c3ccc(F)cc3)CC2)c2ccccn2)cc1 [Compound 357, 4-(4-fluorophenyl)-N-(4-(hydroxycarbamoyl)benzyl)-N-(pyridin-2-yl)piperazine-1-carboxamide]
405 | 8540 | O=C(NO)c1ccc(CN(C(=O)N2CCN(C(c3ccccc3)c3ccccc3)CC2)c2cccc(C(F)(F)F)c2)cc1 [Compound 718, 4-benzhydryl-N-(4-(hydroxycarbamoyl)benzyl)-N-(3-(trifluoromethyl)phenyl)piperazine-1-carboxamide]
1.2 | 1000 | O=C(NO)c1ccc(CN(C(=O)N2CCOCC2)c2ccc(C(F)(F)F)cc2)c(F)c1 [Compound 577, N-(2-fluoro-4-(hydroxycarbamoyl)benzyl)-N-(4-(trifluoromethyl)phenyl)morpholine-4-carboxamide]
27 | 3910 | O=C(NO)c1ccc(CN(C(=O)N2CCOCC2)c2cccnc2)cc1 [Compound 281, N-(4-(hydroxycarbamoyl)benzyl)-N-(pyridin-3-yl)morpholine-4-carboxamide]
11 | 177 | O=C(NO)c1ccc(CN(C(=O)N2CCC[C@@H]2CO)c2ccc(C(F)(F)F)cc2)cc1 [Compound 522, (R)—N-(4-(hydroxycarbamoyl)benzyl)-2-(hydroxymethyl)-N-(4-(trifluoromethyl)phenyl)pyrrolidine-1-carboxamide]
1 | 212 | O=C(NO)c1ccc(CN(C(=O)N2CCOCC2)c2ccc(Br)cc2)cc1 [Compound 372, N-(4-bromophenyl)-N-(4-(hydroxycarbamoyl)benzyl)morpholine-4-carboxamide]
64.5 | > 10000 | O=C(NO)c1ccc(CN(C(=O)N2CCOCC2)c2ccccc2OC(F)(F)F)cc1 [Compound 771, N-(4-(hydroxycarbamoyl)benzyl)-N-(2-(trifluoromethoxy)phenyl)morpholine-4-carboxamide]
8 | 770 | COc1cc(-c2cccc(N(Cc3ccc(C(=O)NO)cc3)C(=O)N3CCOCC3)c2)cc(OC)c1OC [Compound 400, N-(4-(hydroxycarbamoyl)benzyl)-N-(3′,4′,5′-trimethoxybiphenyl-3-yl)morpholine-4-carboxamide]
2 | 1600 | CCN1[C@H](C)CN(C(=O)N(Cc2ccc(C(=O)NO)cc2)c2cccc(C(F)(F)F)c2)C[C@@H]1C [Compound 797, (3S,5R)-4-ethyl-N-(4-(hydroxycarbamoyl)benzyl)-3,5-dimethyl-N-(3-(trifluoromethyl)phenyl)piperazine-1-carboxamide]
9 | 190 | CN1CCN(C(=O)N(Cc2ccc(C(=O)NO)cc2)c2ccc(F)c(Cl)c2)CC1 [Compound 478, N-(3-chloro-4-fluorophenyl)-N-(4-(hydroxycarbamoyl)benzyl)-4-methylpiperazine-1-carboxamide]
7 | 178 | O=C(NO)c1ccc(CN(C(=O)N2CCOCC2)c2cccc(Br)c2)c(F)c1 [Compound 487, N-(3-bromophenyl)-N-(2-fluoro-4-(hydroxycarbamoyl)benzyl)morpholine-4-carboxamide]
1 | 474 | O=C(NO)c1ccc(CN(C(=O)N2CCOCC2)c2ccc(F)c(Cl)c2)cc1 [Compound 458, N-(3-chloro-4-fluorophenyl)-N-(4-(hydroxycarbamoyl)benzyl)morpholine-4-carboxamide]
1 | 710 | O=C(NO)c1ccc(CN(C(=O)N2CCOCC2)c2nc(-c3ccccc3)cs2)cc1 [Compound 370, N-(4-(hydroxycarbamoyl)benzyl)-N-(4-phenylthiazol-2-yl)morpholine-4-carboxamide]
119 | 12300 | COc1ccc(C(F)(F)F)cc1N(Cc1ccc(C(=O)NO)cc1)C(=O)N1CCOCC1 [Compound 774, N-(4-(hydroxycarbamoyl)benzyl)-N-(2-methoxy-5-(trifluoromethyl)phenyl)morpholine-4-carboxamide]
12 | 636 | O=C(NO)c1ccc(CN(C(=O)N2CCOCC2)c2cccc(-c3ccc4c(c3)OCO4)c2)c(F)c1 [Compound 511, N-(3-(benzo[d][1,3]dioxol-5-yl)phenyl)-N-(2-fluoro-4-(hydroxycarbamoyl)benzyl)morpholine-4-carboxamide]
1.9 | 577 | O=C(NO)c1ccc(CN(C(=O)N2CCOCC2)c2cccc(C(F)(F)F)c2)c(F)c1 [Compound 532, N-(2-fluoro-4-(hydroxycarbamoyl)benzyl)-N-(3-(trifluoromethyl)phenyl)morpholine-4-carboxamide]
2 | 574 | CC(=O)N1CCN(C(=O)N(Cc2ccc(C(=O)NO)cc2)c2cccc(F)c2)CC1 [Compound 529, 4-acetyl-N-(3-fluorophenyl)-N-(4-(hydroxycarbamoyl)benzyl)piperazine-1-carboxamide]
10 | 4530 | CN1CCN(C(=O)N(Cc2ccc(C(=O)NO)cc2)c2ccccn2)CC1 [Compound 353, N-(4-(hydroxycarbamoyl)benzyl)-4-methyl-N-(pyridin-2-yl)piperazine-1-carboxamide]
7 | 840 | O=C(NO)c1ccc(CN(C(=O)N2CCOCC2)c2cccc(C3CCOCC3)c2)cc1 [Compound 483, N-(4-(hydroxycarbamoyl)benzyl)-N-(3-(tetrahydro-2H-pyran-4-yl)phenyl)morpholine-4-carboxamide]
31.5 | 1980 | O=C(NO)c1ccc(CN(C(=O)N2CCOCC2)c2cc(C(F)(F)F)ccc2Cl)cc1 [Compound 776, N-(2-chloro-5-(trifluoromethyl)phenyl)-N-(4-(hydroxycarbamoyl)benzyl)morpholine-4-carboxamide]
2 | 72 | O=C(NO)c1ccc(CN(C(=O)N2CCOCC2)c2cccc(-c3ccc4cc[nH]c4c3)c2)cc1 [Compound 261, N-(3-(1H-indol-6-yl)phenyl)-N-(4-(hydroxycarbamoyl)benzyl)morpholine-4-carboxamide]
28 | 427 | CC(C)(O)CN1CCC(c2cccc(N(Cc3ccc(C(=O)NO)cc3)C(=O)N3CCOCC3)c2)CC1 [Compound 517, N-(3-(1-(2-hydroxy-2-methylpropyl)piperidine-4-yl)phenyl)-N-(4-(hydroxycarbamoyl)benzyl)morpholine-4-carboxamide]
2 | 680 | COc1cccc(N(Cc2ccc(C(=O)NO)cc2)C(=O)N2CCOCC2)c1 [Compound 484, N-(4-(hydroxycarbamoyl)benzyl)-N-(3-methyoxyphenyl)morpholine-4-carboxamide]
5 | 6400 | CC(=O)N1CCCN(C(=O)N(Cc2ccc(C(=O)NO)cc2)c2ccccn2)CC1 [Compound 450, 4-acetyl-N-(4-(hydroxycarbamoyl)benzyl)-N-(pyridin-2-yl)-1,4-diazepane-1-carboxamide]
